Test results from patent publication US20230365627A1, “MACROCYCLIC PEPTIDE BORONATE IMMUNOMODULATORS” (Bristol-Myers Squibb Company, priority 2020, published 2023).
*1 amine or outer side, *2 acyl side, *3 side chain or, on linkers, in order; H or OH if unused. Where a SMILES comes first, the peptide text is derived from it. Bridges are numbered along the chain shown (N, C = ends). [ ]: non-standard residue; d: D form. X12 = O=C([C@H](CN1Cc2ccccc2B2O[C@@H]([C@H](O)[C@@H](C(O)CO)O2)[C@H](O)C1)N[*:1])[*:2]; X13 = O=C([C@H](CCNC[C@@H](O)[C@@H](O)[C@H](O)[C@H](O)C(O)CO)N[*:1])[*:2]; Trp(1-CH2CO) = O=C([C@H](Cc1cn(CC(=O)[*:3])c2ccccc12)N[*:1])[*:2]; X28 = O=C([C@H](CNCc1cc(F)c(F)cc1B(O)O[*:3])N[*:1])[*:2]; Trp(1-CH2COOH) = N[C@@H](Cc1cn(CC(=O)O)c2ccccc12)C(=O)O; X30 = O=C([C@H](CNCc1ccc(B(O)O)cc1C(F)(F)F)N[*:1])[*:2]; X8 = O=C([C@H](CNCc1ccc(B(O)O[*:3])cc1Cl)N[*:1])[*:2]; X1 = Cc1cc(CNC[C@H](N[*:1])C(=O)[*:2])cc(C)c1B(O)O; X11 = COc1ccc(CNCC[C@H](N[*:1])C(=O)[*:2])cc1B(O)O; X10 = COc1ccc(CNC[C@H](N[*:1])C(=O)[*:2])cc1B(O)O; X9 = O=C([C@H](CCNCc1ccc(B(O)O)cc1Cl)N[*:1])[*:2]; Hyp = O=C(O)[C@@H]1C[C@@H](O)CN1; NMeNle = CCCC[C@H](NC)C(=O)O; NMeA = CN[C@@H](C)C(=O)O; Dab = NCC[C@H](N)C(=O)O

Molecular target: PD-1/PD-L1 (Homo sapiens (Human), UniProt Q9NZQ7)
Sequence (Q9NZQ7 18-239): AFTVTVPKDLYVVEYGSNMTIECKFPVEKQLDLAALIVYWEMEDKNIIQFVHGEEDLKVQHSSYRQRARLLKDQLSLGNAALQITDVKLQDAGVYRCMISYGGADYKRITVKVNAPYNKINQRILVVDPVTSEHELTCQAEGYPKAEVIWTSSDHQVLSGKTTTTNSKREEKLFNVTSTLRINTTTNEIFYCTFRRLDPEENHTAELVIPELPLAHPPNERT
Assay: PD-1/PD-L1 Homogenous Time-Resolved Fluorescence (HTRF) binding assay
Settings: not given
Source text: Methods for Testing the Ability of Macrocyclic Peptides to Compete for the Binding of PD-1 to PD-L1 Using Homogenous Time-Resolved Fluorescence (HTRF) Binding Assays
The ability of the compounds of formula (I) to bind to PD-L1 was investigated using a PD-1/PD-L1 Homogenous Time-Resolved Fluorescence (HTRF) binding assay.
Homogenous Time-Resolved Fluorescence (HTRF) Binding Assay
The interaction of PD-1 and PD-L1 can be assessed using soluble, purified preparations of the extracellular domains of the two proteins. The PD-1 and PD-L1 protein extracellular domains were expressed as fusion proteins with detection tags, for PD-1, the tag was the Fc portion of Immunoglobulin (PD-1-Ig) and for PD-L1 it was the 6 histidine motif (PD-L1-His). All binding studies were performed in an HTRF assay buffer consisting of dPBS supplemented with 0.1% […] bovine serum albumin and 0.05% (v/v) Tween-20. For the h/PD-L1-His binding assay, inhibitors were pre-incubated with PD-L1-His (10 nM final) for 15 m in 4 μl of assay buffer, followed by addition of PD-1-Ig (20 nM final) in 1 μl of assay buffer and further incubation for 15 m. HTRF detection was achieved using europium cryptate-labeled anti-Ig (1 nM final) and allophycocyanin (APC) labeled anti-His (20 nM final). Antibodies were diluted in HTRF detection buffer and 5 μl was dispensed on top of the binding reaction. The reaction mixture was allowed to equilibrate for 30 minutes and the resulting signal (665 nm/620 nm ratio) was obtained using an EnVision fluorometer. Additional binding assays were established between the human proteins PD-1-Ig/PD-L2-His (20 & 5 nM, respectively) and CD80-His/PD-L1-Ig (100 & 10 nM, respectively).
Recombinant Proteins: Human PD-1 (25-167) with a C-terminal human Fc domain of immunoglobulin G (Ig) epitope tag [hPD-1 (25-167)-3S-IG] and human PD-L1 (18-239) with a C-terminal His epitope tag [hPD-L1(18-239)-TVMV-His] were expressed in HEK293T cells and purified sequentially by ProteinA affinity chromatography and size exclusion chromatography. Human PD-L2-His and CD80-His was obtained through commercial sources.
Table 1 lists the IC50 values for representative examples of this disclosure measured in the PD-1/PD-L1 Homogenous Time-Resolved Fluorescence (HTRF) binding assay.

Row | SMILES | IC50
1 | CCCC[C@H]1C(=O)N(C)[C@@H](CCCC)C(=O)N[C@@H](CC(C)C)C(=O)N[C@H](C(=O)NCC(N)=O)CSCC(=O)N[C@@H](Cc2ccc(O)cc2)C(=O)N(C)[C@@H](C)C(=O)N[C@@H](CC(N)=O)C(=O)N2CCC[C@H]2C(=O)N[C@@H](CN2Cc3ccccc3B3O[C@@H]([C@H](O)[C@@H](C(O)CO)O3)[C@H](O)C2)C(=O)N[C@@H](CC(C)C)C(=O)N2C[C@H](O)C[C@H]2C(=O)N[C@@H](Cc2c[nH]c3ccccc23)C(=O)N[C@@H](CCNC[C@@H](O)[C@@H](O)[C@H](O)[C@H](O)C(O)CO)C(=O)N[C@@H](Cc2cn(CC(=O)O)c3ccccc23)C(=O)N1C (stereo partly drawn) [Example 1038] ({CH2CO}-Y[NMeA]NP[X12]L[Hyp]W[X13][Trp(1-CH2COOH)][NMeNle][NMeNle]LCG-NH2; thioether N-14) | 6.8 nM

Same assay, conditions: PD-L1-His 10 nM, PD-1-Ig 20 nM; read-out: HTRF IC50

Row | SMILES | IC50
2 | CCCC[C@H]1C(=O)N(C)[C@@H](CCCC)C(=O)N[C@@H](CC(C)C)C(=O)N[C@H](C(=O)NCC(N)=O)CSCC(=O)N[C@@H](Cc2ccc(O)cc2)C(=O)N(C)[C@@H](C)C(=O)N[C@@H](CC(N)=O)C(=O)N2CCC[C@H]2C(=O)N[C@@H](CNCc2ccc(OC)c(B(O)O)c2)C(=O)N[C@@H](CC(C)C)C(=O)N2C[C@H](O)C[C@H]2C(=O)N[C@@H](Cc2c[nH]c3ccccc23)C(=O)N[C@@H](CCN)C(=O)N[C@@H](Cc2cn(CC(=O)O)c3ccccc23)C(=O)N1C [Example 1023] ({CH2CO}-Y[NMeA]NP[X10]L[Hyp]W[Dab][Trp(1-CH2COOH)][NMeNle][NMeNle]LCG-NH2; thioether N-14) | 9.7 nM
3 | CCCC[C@H]1C(=O)N(C)[C@@H](CCCC)C(=O)N[C@@H](CC(C)C)C(=O)N[C@H](C(=O)NCC(N)=O)CSCC(=O)N[C@@H](Cc2ccc(O)cc2)C(=O)N(C)[C@@H](C)C(=O)N[C@@H](CC(N)=O)C(=O)N2CCC[C@H]2C(=O)N[C@H]2CNCc3cc(F)c(F)cc3B(O)OC(=O)Cn3cc(c4ccccc43)C[C@H](NC(=O)[C@H](CCN)NC(=O)[C@H](Cc3c[nH]c4ccccc34)NC(=O)[C@@H]3C[C@@H](O)CN3C(=O)[C@H](CC(C)C)NC2=O)C(=O)N1C [Example 1024] ({CH2CO}-Y[NMeA]NP[X28]L[Hyp]W[Dab][Trp(1-CH2CO)][NMeNle][NMeNle]LCG-NH2; ester 5-10; thioether N-14) | 9.4 nM
4 | CCCC[C@H]1C(=O)N(C)[C@@H](CCCC)C(=O)N[C@@H](CC(C)C)C(=O)N[C@H](C(=O)NCC(N)=O)CSCC(=O)N[C@@H](Cc2ccc(O)cc2)C(=O)N(C)[C@@H](C)C(=O)N[C@@H](CC(N)=O)C(=O)N2CCC[C@H]2C(=O)N[C@@H](CNCc2ccc(B(O)O)cc2C(F)(F)F)C(=O)N[C@@H](CC(C)C)C(=O)N2C[C@H](O)C[C@H]2C(=O)N[C@@H](Cc2c[nH]c3ccccc23)C(=O)N[C@@H](CCN)C(=O)N[C@@H](Cc2cn(CC(=O)O)c3ccccc23)C(=O)N1C [Example 1025] ({CH2CO}-Y[NMeA]NP[X30]L[Hyp]W[Dab][Trp(1-CH2COOH)][NMeNle][NMeNle]LCG-NH2; thioether N-14) | 14 nM
5 | CCCC[C@H]1C(=O)N(C)[C@@H](CCCC)C(=O)N[C@@H](CC(C)C)C(=O)N[C@H](C(=O)NCC(N)=O)CSCC(=O)N[C@H]2Cc3ccc(cc3)OB(O)c3ccc(cc3F)CNCC[C@@H]3NC(=O)[C@H](Cc4c[nH]c5ccccc45)NC(=O)[C@@H]4C[C@@H](O)CN4C(=O)[C@H](CC(C)C)NC(=O)[C@H](CNCc4ccc(c(F)c4)B(O)OC(=O)Cn4cc(c5ccccc54)C[C@H](NC3=O)C(=O)N1C)NC(=O)[C@@H]1CCCN1C(=O)[C@H](CC(N)=O)NC(=O)[C@H](C)N(C)C2=O [Example 1026] | 4 nM
6 | CCCC[C@H]1C(=O)N(C)[C@@H](CCCC)C(=O)N[C@@H](CC(C)C)C(=O)N[C@H](C(=O)NCC(N)=O)CSCC(=O)N[C@@H](Cc2ccc(O)cc2)C(=O)N(C)[C@@H](C)C(=O)N[C@@H](CC(N)=O)C(=O)N2CCC[C@H]2C(=O)N[C@@H](CNCc2cc(C)c(B(O)O)c(C)c2)C(=O)N[C@@H](CC(C)C)C(=O)N2C[C@H](O)C[C@H]2C(=O)N[C@@H](Cc2c[nH]c3ccccc23)C(=O)N[C@@H](CCN)C(=O)N[C@@H](Cc2cn(CC(=O)O)c3ccccc23)C(=O)N1C [Example 1027] ({CH2CO}-Y[NMeA]NP[X1]L[Hyp]W[Dab][Trp(1-CH2COOH)][NMeNle][NMeNle]LCG-NH2; thioether N-14) | 3.8 nM
7 | CCCC[C@H]1C(=O)N(C)[C@@H](CCCC)C(=O)N[C@@H](CC(C)C)C(=O)N[C@H](C(=O)NCC(N)=O)CSCC(=O)N[C@H]2Cc3ccc(cc3)OB(O)c3ccc(c(F)c3)CNCC[C@@H]3NC(=O)[C@H](Cc4c[nH]c5ccccc45)NC(=O)[C@@H]4C[C@@H](O)CN4C(=O)[C@H](CC(C)C)NC(=O)[C@H](CNCc4ccc(cc4F)B(O)OC(=O)Cn4cc(c5ccccc54)C[C@H](NC3=O)C(=O)N1C)NC(=O)[C@@H]1CCCN1C(=O)[C@H](CC(N)=O)NC(=O)[C@H](C)N(C)C2=O [Example 1028] | 4.6 nM
8 | CCCC[C@H]1C(=O)N(C)[C@@H](CCCC)C(=O)N[C@@H](CC(C)C)C(=O)N[C@H](C(=O)NCC(N)=O)CSCC(=O)N[C@H]2Cc3ccc(cc3)OB(O)c3ccc(c(C(F)(F)F)c3)CNCC[C@@H]3NC(=O)[C@H](Cc4c[nH]c5ccccc45)NC(=O)[C@@H]4C[C@@H](O)CN4C(=O)[C@H](CC(C)C)NC(=O)[C@H](CNCc4ccc(cc4C(F)(F)F)B(O)OC(=O)Cn4cc(c5ccccc54)C[C@H](NC3=O)C(=O)N1C)NC(=O)[C@@H]1CCCN1C(=O)[C@H](CC(N)=O)NC(=O)[C@H](C)N(C)C2=O [Example 1030] | 11 nM
9 | CCCC[C@H]1C(=O)N(C)[C@@H](CCCC)C(=O)N[C@@H](CC(C)C)C(=O)N[C@H](C(=O)NCC(N)=O)CSCC(=O)N[C@H]2Cc3ccc(cc3)OB(O)c3cc(F)c(F)cc3CNCC[C@@H]3NC(=O)[C@H](Cc4c[nH]c5ccccc45)NC(=O)[C@@H]4C[C@@H](O)CN4C(=O)[C@H](CC(C)C)NC(=O)[C@H](CNCc4cc(F)c(F)cc4B(O)OC(=O)Cn4cc(c5ccccc54)C[C@H](NC3=O)C(=O)N1C)NC(=O)[C@@H]1CCCN1C(=O)[C@H](CC(N)=O)NC(=O)[C@H](C)N(C)C2=O [Example 1031] | 10 nM
10 | CCCC[C@H]1C(=O)N(C)[C@@H](CCCC)C(=O)N[C@@H](CC(C)C)C(=O)N[C@H](C(=O)NCC(N)=O)CSCC(=O)N[C@@H](Cc2ccc(O)cc2)C(=O)N(C)[C@@H](C)C(=O)N[C@@H](CC(N)=O)C(=O)N2CCC[C@H]2C(=O)N[C@@H](CNCc2ccc(OC)c(B(O)O)c2)C(=O)N[C@@H](CC(C)C)C(=O)N2C[C@H](O)C[C@H]2C(=O)N[C@@H](Cc2c[nH]c3ccccc23)C(=O)N[C@@H](CCNCc2ccc(OC)c(B(O)O)c2)C(=O)N[C@@H](Cc2cn(CC(=O)O)c3ccccc23)C(=O)N1C [Example 1032] ({CH2CO}-Y[NMeA]NP[X10]L[Hyp]W[X11][Trp(1-CH2COOH)][NMeNle][NMeNle]LCG-NH2; thioether N-14) | 5.9 nM
11 | CCCC[C@H]1C(=O)N(C)[C@@H](CCCC)C(=O)N[C@@H](CC(C)C)C(=O)N[C@H](C(=O)NCC(N)=O)CSCC(=O)N[C@@H](Cc2ccc(O)cc2)C(=O)N(C)[C@@H](C)C(=O)N[C@@H](CC(N)=O)C(=O)N2CCC[C@H]2C(=O)N[C@H]2CNCc3ccc(cc3Cl)B(O)OC(=O)Cn3cc(c4ccccc43)C[C@H](NC(=O)[C@H](CCNCc3ccc(B(O)O)cc3Cl)NC(=O)[C@H](Cc3c[nH]c4ccccc34)NC(=O)[C@@H]3C[C@@H](O)CN3C(=O)[C@H](CC(C)C)NC2=O)C(=O)N1C [Example 1033] ({CH2CO}-Y[NMeA]NP[X8]L[Hyp]W[X9][Trp(1-CH2CO)][NMeNle][NMeNle]LCG-NH2; ester 5-10; thioether N-14) | 9 nM
12 | CCCC[C@H]1C(=O)N(C)[C@@H](CCCC)C(=O)N[C@@H](CC(C)C)C(=O)N[C@H](C(=O)NCC(N)=O)CSCC(=O)N[C@H]2Cc3ccc(cc3)OB(O)c3ccc(nc3)CNCC[C@@H]3NC(=O)[C@H](Cc4c[nH]c5ccccc45)NC(=O)[C@@H]4C[C@@H](O)CN4C(=O)[C@H](CC(C)C)NC(=O)[C@H](CNCc4ccc(cn4)B(O)OC(=O)Cn4cc(c5ccccc54)C[C@H](NC3=O)C(=O)N1C)NC(=O)[C@@H]1CCCN1C(=O)[C@H](CC(N)=O)NC(=O)[C@H](C)N(C)C2=O [Example 1034] | 11 nM
